# Assay results: US7809428B2, “Devices for detection and therapy of atheromatous plaque” (The General Hospital Corporation, priority 2001, dated 2010)
# Assays:
# [1] = system: experimental atherosclerotic lesions of the aorta; type: in vivo, rabbit
# Procedure: Male New Zealand White rabbits weighing 2.5-3.0 kg (Charles River Breeding Laboratories) were maintained on a 2% cholesterol-6% peanut oil diet (ICN) for 3 months. […] The femoral artery was then ligated, and the wound closed. The animals were allowed to recover from anesthesia and then returned to their cages.
# Two to four millicuries of the ^99mTc-Ap4A-glucoheptonate, ^99mTc-AppCHClppA-glucoheptonate, or ^99mTc-glucoheptonate (control) was injected into marginal ear veins of groups of three rabbits with experimental atherosclerotic lesions. As a control, three unlesioned animals were injected with 2-4 mCi of ^99mTc-Ap4A-glucoheptonate. After radiopharmaceutical administration, serial gamma images were collected every minute for the first 5 minutes, every 2 minutes for the next 25 minutes, and every 5 minutes for the next 2.5 hours. In all of the rabbits, images were acquired in the anterior and lateral decubitus projections, including the heart and aorta, by using a standard field-of-view gamma camera (Series 100, Ohio Nuclear, Solon, Ohio) equipped with a high-resolution parallel-hole collimator and interfaced with a dedicated computer system (Technicare 560, Solon, Ohio). The pulse height analyzer was adjusted to record the 140 KeV photopeak of ^99mTc, and all images were recorded in a 256×256 matrix.
# After acquiring the final images, the animals were sacrificed with an overdose of sodium pentobarbital. The aortas were removed, opened along the ventral surface, and mounted on styrofoam blocks. The aortas then were placed on the face of the gamma camera and ex vivo images were recorded for 10 minutes.
# [2] = system: aortic and iliac plaque of atherosclerotic rabbits; test: Intimal surface fluorescence by OMA-LIF system; type: in vivo, rabbit
# Description: The second measurement of intimal surface fluorescence was made by the OMA-LIF system described above. At least 15 separate fluorescence measurements were taken from each artery segment. In addition, the iliac artery through which the balloon was passed also sustained an injury due to its relatively small diameter compared to aortic section 5 and, therefore, developed atherosclerosis compared to the uninjured iliac artery. […] Sections 3, 4 and injured iliac of atherosclerotic compared to normal control had p values<0.0001, while section 5 and uninjured iliacs had p values<0.0005. Accordingly, the less severe plaques of section 5 are distinguishable from the macrophage-rich plaques of sections 3 and 4.
# In FIG. 14a, a marked contrast was seen between a large aortic plaque and an area of the abdominal aorta 5 mm beneath the plaque. In FIG. 14b, another marked contrast was seen between the balloon injured iliac artery and the contralateral normal artery in the same rabbit. […] These spectra were obtained in a rabbit that had received an overdose of anesthesia. […] By palpation of the outside of the artery, the position of the catheter in relation to plaques was determined Thus, a novel method has been developed for targeting a photosensitizer composition to the activated macrophages of a vulnerable plaque with high specificity.
# [3] = system: balloon-injured abdominal aorta plaque; test: In vivo photodynamic therapy of rabbit aorta through flowing blood
# Procedure: Animals (one atherosclerotic and one normal rabbit, each injected with Mal-BSA-ce6 24 hours previously; and one atherosclerotic rabbit that received no injection) were anesthetized as before and a cylindrical diffusing tipped fiber optic (length of tip=2 cm, diameter=1 mm) was advanced to a position midway along the balloon-injured abdominal aorta. […] Light was delivered at a fluence rate of approximately 100 mW/cm of diffusing tip and a total fluence of approximately 100 J/cm was delivered. At the conclusion of the illumination, the fiber was withdrawn and the arteriotomy and overlying wound were closed. Animals were sacrificed 48 hours later. […] Complete aortas and iliac arteries were removed from the PDT treated normal and atherosclerotic rabbits and control (no Mal-BSA-ce6 injection) atherosclerotic rabbit and were examined by histology using H&E, Masson Trichrome and Verhoeffs stain.
# [4] = system: aortic plaque of atherosclerotic rabbits; details: rabbit, in vivo
# Procedure: For confocal fluorescence microscopy, selected parts of the aortas were snap frozen in liquid nitrogen and approximately 10-20 μm frozen sections were prepared. These sections underwent laser scanning confocal fluorescence microscopy to detect the tissue distribution of the ce6. The red intracellular fluorescence from ce6 together with green tissue auto-fluorescence was imaged in the cells in 10 μm frozen sections. Sections were examined with a laser scanning confocal fluorescence microscope. A Leica DMR confocal laser fluorescence microscope (Leica Mikroskopie und Systeme GmbH, Wetzler, Germany)(excitation 488 nm argon laser) and 4×−40× air immersion lens or a 100× oil immersion objective was used to image at a resolution of 1024×1024 pixels. […] These channels were overlaid using TCS NT software (Version 1.6.551, Leica Lasertechnik, Heidelberg, Germany) to allow visualization of overlap of red and green fluorescence. These sections were also stained by immunohistochemistry using macrophage specific monoclonal antibodies and conventional H&E staining. Other parts of normal and atherosclerotic aorta were cut into small pieces, weighed and dissolved in sodium hydroxide/SDS and the tissue content of ce6 was determined by spectrofluorimetry as previously described (Hamblin et al (2000) Br. J. Cancer 83:1544). […]
# [5] = system: J774 or RAW264.7 mouse macrophage-like cells versus non-target EMT-6 cells; test: Cellular uptake of conjugates and free ce6; type: cell-based; details: J774 and EMT-6 cells
# Procedure: J774.A1 (J774) and RAW 264.7 mouse macrophage-like cell lines, together with EMT-6 mouse mammary […] cells, were obtained from ATCC (Rockville, Md.). Cells were grown in RPMI 1640 media containing HEPES, glutamine, 10% fetal calf serum (FCS), 100 U/ml penicillin and 100 μg/ml streptomycin. They were passaged by washing with phosphate buffered saline (PBS) without Ca^2+ and Mg^2+ and by adding trypsin-EDTA to the plate for 10 minutes at 37° C.
# For cellular uptake studies, cells were grown to approximately 90% confluency in twenty-four well plates and the conjugate or photosensitizer was added in about 1 ml medium containing approximately 10% serum to each well. […] The trypsin supernatant was checked for the presence of fluorescence to quantify any surface binding which might easily be removed by trypsin. The fluorescence was measured using an excitation wavelength of 400 nm and the emission scanned from 580 to 700 nm in order to calculate the peak area (λmax=664 nm). A series of dilutions in approximately 1.5 ml 0.1M NaOH/1% SDS of known concentrations of each separate conjugate and photosensitizer was scanned for fluorescence as above in order to prepare calibration curves to allow for quantitation of the ce6 by conversion of the measured peak areas into mol ce6 equivalent. […] Results were expressed as mol of ce6 per mg cell protein. […]
# [6] = atherosclerotic rabbit, conjugate and light
substance,measurement,setting,value
^99mTc-glucoheptonate,"clearance of radioactivity from all organs, t1/2s","[1]; rabbit, in vivo",5 to 10 min
same,organs in which radioactivity accumulated,"[1]; rabbit, in vivo",accumulated in the kidneys and bladder
same,accumulation of radioactivity in the aortic lesions,[1]; rabbits with experimental atherosclerosis,no evidence of specific accumulation in the aortic lesions
Mal-BSA-ce6,"intimal surface fluorescence, atherosclerotic versus normal rabbit","[2]; arteries with inflamed plaque (sections 3, 4 and injured iliac, p<0.0001)",highly significant increases in fluorescence
same,"intimal surface fluorescence, atherosclerotic versus normal rabbit",[2]; sections 1 and 2,not significantly different
same,gross damage at necropsy in illuminated aortic section or surrounding tissue,"[3]; atherosclerotic rabbit, 48 hours after PDT",no gross damage visible
same,histological changes in the illuminated section,[3]; [6],evidence of apoptosis (pyknotic nuclei) and an inflammatory infiltrate in the plaque
same,necrosis in the illuminated section (histology),[3]; [6],some coagulative necrosis
same,overall effect of treatment on plaque histology,[3]; [6],favorable modifications of plaque histology and reduced vulnerability
same,gross damage at necropsy in surrounding tissue,"[3]; normal rabbit, 48 hours after PDT",some minor damage visible in the paraaortic muscle
same,histological changes,"[3]; normal rabbit, photosensitizer composition and light",Histological changes were not observed
same,ill effects of treatment before sacrifice,"[3]; two rabbits that received composition and light, two days",no ill effects
same,"extracted ce6 fluorescence per gram tissue, difference atherosclerotic versus normal rabbits",[4],significant
chlorin e6 [ce6],uptake of unbound ce6 by receptor-positive and receptor-negative cells,[5],indiscriminate uptake
